Data from patent US12370202B2, “Methods and compositions for inhibiting the NLRP3 inflammasome and/or LON protease” (TRITERPENOID THERAPEUTICS, INC., priority 2019, dated 2025).

How the values were obtained:
NLRP3 inflammasome = NLRP3 inflammasome activation in LPS-primed BMDM, IL-1β ELISA; format: cell-based, mouse; details: for IL-1β production by NLRP3 inflammasome activation: LPS primed BMDM, different doses (30-1000 nM) 15 min before ATP (5 mM) 45 min, ELISA
Method: FIG. 4A depicts an experimental design and FIG. 4B is a bar graph. Ixazomib (IXZ) potentiation of NLRP3 inflammasome activation inhibited by CDDO-2P-Im. Bone marrow derived macrophages (BMDM) were treated with Ixazomib (IXZ) and LPS (100 ng/ml) for 20 hours. Primed-BMDM were treated with CDDO-2P-Im (100 nM) for 15 min, followed by stimulation of ATP (5 mM) for 45 min. Supernatant were analyzed by ELISA for IL-1β release.
FIG. 6 is a set of bar graphs. CDDO-Im, CDDO-2P-Im (right panel), and CDDO-3P-Im (left panel) inhibit IL-1β production by NLRP3 inflammasome activation. LPS primed-BMDM were treated with different doses of CDDO-Im, CDDO-2P-Im, or CDDO-3P-Im for 15 min before ATP (5 mM) was added for 45 min. Supernatant were analyzed by ELISA for IL-1β.
To explore the potential that CDDO-2P-IM may enhance the MM response to proteasome inhibitors via inhibition of inflammasome activity, the effect of CDDO-2P-IM on activation of the NLRP3 complex (as defined by IL-1β production), in the presence or absence of IXZ in primary mouse bone marrow derived macrophages (BMDM) was evaluated. In the experiment, BMDM were primed by lipopolysaccharide (LPS) in the presence or absence of IXZ for 4 hours, followed by a brief ([…]) exposure to CDDO-2P-IM after which inflammasome activation was triggered by ATP.
(§1) The effects of the pyridyl derivatives of CDDO-IM, (specifically, CDDO-2P-Im and CDDO-3P-Im) on NLRP3 inflammasome activation were tested in mouse BMDMs. Cells were first primed with LPS for 4 hours, then pretreated with specific doses of either CDDO-Im, CDDO-2P-IM or CDDO-3P-Im (30-1000 nM) for 15 min before ATP was added for another 45 min. CDDO-Im and its pyridyl derivatives inhibited the amount of caspase-p10 (an auto-processed fragment of caspase-1) released into cell culture supernatants in a dose-dependent manner as measured by Western blot (FIG. 5). […] The effect on caspase-1 activation is specific for the NLRP3 inflammasome as the AIM2 inflammasome activation by poly(dA:dT) was not inhibited by the synthetic CDDO-Im derivatives (data not shown).

Caspase 1 = Caspase 1 activation in LPS-primed BMDM, immunoblotting (caspase-p10); format: cell-based, mouse; details: different doses (30-1000 nM) 15 min before ATP (5 mM) 45 min
Method: FIG. 5 depicts a Western blot. CDDO-Im, CDDO-2P-Im, and CDDO-3P-Im inhibit Caspase 1 activation. LPS primed BMDM were treated with different doses of CDDO-Im, CDDO-2P-Im, or CDDO-3P-Im for 15 min before ATP (5 mM) was added for 45 min. Medium supernatant (SUP) and cell extracts (Lys) were analyzed by immunoblotting.
as §1

NLRP3 = assay: Mono-sodium urate (MSU)-induced peritonitis; format: in vivo, Mice; details: MSU crystals 1 mg/mouse i.p.; lavage four to sixteen hours later
Method: FIG. 7 is a bar graph. CDDO-Im, CDDO-2P-Im, and CDDO-3P-Im inhibit mono-sodium urate (MSU)-induced peritonitis. Peritoneal cavity IL-1β levels expressed as mean and SEM (n=6).
Mice received intraperitoneal (i.p.) injections of mono-sodium urate (MSU) crystals (1 mg/mouse) in the presence or absence of CDDO-Im, CDDO-2P-Im, or CDDO-3P-Im. Due to its particulate material, MSU crystals are potent activators of the NOD-like receptor NLRP3. Four to sixteen hours later a peritoneal lavage was conducted to collect supernatant from the peritoneal cavity.

CCL2 = CCL2 expression in LPS-stimulated human macrophages, RT-qPCR; format: cell-based; details: 16 hours pretreatment, then 10 ng/ml LPS 24 hours
Method: FIG. 10 is a bar graph. CDDO-Me, CDDO-Im, CDDO-2P-Im, and CDDO-3P-Im inhibit expression of CCL2 in human macrophages at picomolar concentrations.
Human peripheral blood monocytes were isolated using CD14 magnetic beads and differentiated with 20 ng/ml M-CSF for with 5 days and pretreated or not with 300 nM CDDO-Me; 500 pM CDDO-Im; 500 pM CDDO-2p-Im; 500 pM CDDO-3p-Im for 16 hours, followed by stimulation with 10 ng/ml LPS for an additional 24 hours. Total RNA was extracted and analyzed by RT-qPCR (Tagman) for cytokine expression.

5T33MM cells = assay: MM cell proliferation (confluence), IncuCyte imaging; format: cell-based, murine; details: 50 nM TTX01 or 7.5 nM IXZ alone, 72 hours
Method: (§2) FIG. 2 is a bar graph. CDDO-2P-Im inhibits proliferation of multiple myeloma cell line in vitro. 5T33MM, RPMI8226, and ARH77 cells were seeded in 96-well plates and incubated with CDDO-2P-Im (50 nM-150 nM). Confluence (cell proliferation) was measured using IncuCyte imaging after 72 hours. *p<0.01 compared to control.
(§3) FIG. 3 is a bar graph. […] Shown here are results for 5T33MM (50 nM TTX01/7.5 nM IXZ); RPMI8226 (100 nM TTX01/7.5 nM IXZ); and ARH77 (150 nM TTX01/10 nM IXZ). Confluence (cell proliferation) was measured using IncuCyte imaging after 72 hours.
(§4) To examine tumor-intrinsic effects of CDDO-2P-IM in the 5T33MM cell line and in human MM cells, conducted a series of in vitro studies was conducted. For these experiments, 96-well plates were first coated in poly-L-ornithine before cells were seeded (in triplicate), including the murine 5T33MM and the human RPMI8226, and ARH77 cell lines (15,000 cells per well). Cells were incubated in IncuCyte™ Live-Cell Analysis System for 72 hours (images were taken every 4 hours). To define dose-dependent effect of CDDO-2P-IM, cells were exposed to concentrations ranging from 50 nM to 150 nM. To examine potential synergy of CDDO-2P-IM with IXZ, MM cells were exposed to IXZ (7 nM-10 nM) either alone or in combination with CDDO-2P-IM.

ARH77 cells = assay: as above; format: cell-based, human; details: 150 nM TTX01 or 10 nM IXZ alone, 72 hours
Method: as §2, §3, §4

RPMI8226 cells = assay: as above; format: cell-based, human; details: 100 nM TTX01 or 7.5 nM IXZ alone, 72 hours
Method: as §2, §3, §4

A2780 = assay: Ovarian cancer cell growth (confluence), IncuCyte ZOOM; format: cell-based, human; details: cisplatin dose used in the combination
From the text: (§5) FIG. 11 is a set of line graphs. Cisplatin resistant human ovarian cancer cell lines A2780, CP70, OV81, CP10, OVCAR-5 and OVCAR-8 were exposed to CDDO-2P-Im, cisplatin, or a combination of CDDO-2P-Im and cisplatin.
(§6) CDDO-2P-Im suppresses growth of cisplatin-resistant human ovarian cancer cells in vitro. Cisplatin resistant human ovarian cancer cell lines A2780, CP70, OV81, CP10, OVCAR-5 and OVCAR-8 cell were each cultured in a complete medium consisting of RPMI1640, 20% heat-inactivated FBS, 1% penicillin/streptomycin. Cells were cultured in a water jacketed CO2 incubator at 37° C. in a humidified atmosphere consisting of 5% CO2 and 95% air. Continuous live-cell analysis (CLCA) was used as a non-invasive cell monitoring and measurement method based on time-lapse, phase-contrast microscopy and fluorescence imaging, using IncuCyte® ZOOM. Cells were seeded in 96-well plates at densities of either 1×10^4 or 3×10^4 cell/cm^2 followed by addition of a drug dilution series for either CDDO-2P-Im or Cisplatin (P4394, Sigma) dissolved in PBS and diluted in media. […] Reduction in confluence is accompanied by the detachment and death of ovarian cancer cells.

CP10 = assay: as above; format: cell-based, human; details: cisplatin dose used in the combination
From the text: as §5, §6

CP70 = assay: as above; format: cell-based, human; details: cisplatin dose used in the combination
From the text: as §5, §6

OV81 = assay: as above; format: cell-based, human; details: cisplatin dose used in the combination
From the text: as §5, §6

OVCAR-5 = assay: as above; format: cell-based, human; details: cisplatin dose used in the combination
From the text: as §5, §6

OVCAR-8 = assay: as above; format: cell-based, human; details: cisplatin dose used in the combination
From the text: as §5, §6

CC1(C)CC[C@]2(C(=O)n3cnc(-c4cccnc4)c3)CC[C@]3(C)[C@H](C(=O)C=C4[C@@]5(C)C=C(C#N)C(=O)C(C)(C)[C@@H]5CC[C@]43C)[C@@H]2C1 [CDDO-3P-Im, 1-[2-Cyano-3,12-dioxooleana-1,9(11)-dien-28-oyl]-4(-pyridin-3-yl)-1H-imidazole]
inhibit: IL-1β production by NLRP3 inflammasome activation (NLRP3 inflammasome) | Caspase 1 activation (caspase-p10 released into supernatant) (Caspase 1) | MSU-induced peritonitis (peritoneal cavity IL-1β levels) (NLRP3) | expression of CCL2 (CCL2; 500 pM)

CC(C)C[C@H](NC(=O)CNC(=O)c1cc(Cl)ccc1Cl)B(O)O [IXZ, reference compound]
potentiation: IL-1β release (NLRP3 inflammasome activation), effect of IXZ during LPS priming (NLRP3 inflammasome; BMDM, IXZ and LPS (100 ng/ml), ATP (5 mM) 45 min)
only partially effective: proliferation (confluence), agent added alone (5T33MM cells) | proliferation (confluence), agent added alone (ARH77 cells) | proliferation (confluence), agent added alone (RPMI8226 cells)

CC1(C)CC[C@]2(C(=O)n3ccnc3)CC[C@]3(C)[C@H](C(=O)C=C4[C@@]5(C)C=C(C#N)C(=O)C(C)(C)[C@@H]5CC[C@]43C)[C@@H]2C1 [CDDO-Im, 1-(2-cyano-3,12-dioxooleana-1,9(11)-dien-28-oyl) imidazole, reference compound]
inhibit: IL-1β production by NLRP3 inflammasome activation (NLRP3 inflammasome) | Caspase 1 activation (caspase-p10 released into supernatant) (Caspase 1) | MSU-induced peritonitis (peritoneal cavity IL-1β levels) (NLRP3) | expression of CCL2 (CCL2; 500 pM)

COC(=O)[C@]12CCC(C)(C)C[C@H]1[C@H]1C(=O)C=C3[C@@]4(C)C=C(C#N)C(=O)C(C)(C)[C@@H]4CC[C@@]3(C)[C@]1(C)CC2 [CDDO-Me, reference compound]
inhibit: expression of CCL2 (CCL2; 300 nM)

N.N.[Cl][Pt][Cl] [cisplatin, cis-diamminedichloroplatinum(II), reference compound]
absolutely no effect: ovarian cancer cell kill, cisplatin alone (A2780) | ovarian cancer cell kill, cisplatin alone (CP10) | ovarian cancer cell kill, cisplatin alone (CP70) | ovarian cancer cell kill, cisplatin alone (OV81) | ovarian cancer cell kill, cisplatin alone (OVCAR-5) | ovarian cancer cell kill, cisplatin alone (OVCAR-8)
